Source: ChEMBL document CHEMBL4024707, “Using gene expression database to uncover biology functions of 1,4-disubstituted 1,2,3-triazole analogues synthesized via a copper (I)-catalyzed reaction” (Eur J Med Chem, 2017)
Active and inactive are the calls of the source. No cut-off for these calls is given here.

Legend:
Hep 3B2 [1] = test: Cytotoxicity against human Hep3B cells after 6 days by MTT assay; type: functional, cell-based; conditions: 144 h
HT-29 = test: Cytotoxicity against human HT-29 cells after 6 days by MTT assay; type: functional, cell-based; conditions: HT-29, 144 h
Hep 3B2 [2] = test: Induction of autophagy in human Hep3B cells assessed as ratio of LC3-2 to beta-actin level at 30 uM after 48 hrs by Western blot analysis; type: functional
Hep 3B2 [3] = test: Cell cycle arrest in human Hep3B cells assessed as accumulation at S phase at 30 uM after 48 hrs by propidium iodide staining based flow cytometry (reference value: 23.8 +/- 1.9%); type: functional
Hep 3B2 [4] = test: Induction of apoptosis in human Hep3B cells assessed as ratio of cleaved caspase-3 to beta actin level at 30 uM after 48 hrs by Western blot analysis; type: functional
Hep 3B2 [5] = test: Cell cycle arrest in human Hep3B cells assessed as accumulation at G2/M phase at 30 uM after 48 hrs by propidium iodide staining based flow cytometry (reference value: 36.6 +/- 2.9%); type: functional
Hep 3B2 [6] = test: Growth inhibition of human Hep3B cells at 30 uM after 48 hrs by MTT assay; type: functional, cell-based
Hep 3B2 [7] = test: Cell cycle arrest in human Hep3B cells assessed as accumulation at G0/G1 phase at 30 uM after 48 hrs by propidium iodide staining based flow cytometry (reference value: […] +/- […]%); type: functional
Hep 3B2 [8] = test: Cell cycle arrest in human Hep3B cells assessed as accumulation at sub-G1 phase at 30 uM after 48 hrs by propidium iodide staining based flow cytometry (reference value: 3.7 +/- 0.4%); type: functional

SMILES	IC50 (Hep 3B2 [1])	IC50 (HT-29)	other results
CCCCCCn1cc(CN2C(=O)COc3ccccc32)nn1	> 100 µM	34.4 µM	
COc1ccc(Cn2cc(CN3C(=O)COc4ccccc43)nn2)cc1	> 100 µM	18.5 µM	
O=C1COc2ccccc2N1Cc1cn(Cc2ccc([N+](=O)[O-])cc2)nn1	29.6 µM	15.6 µM	
O=C1COc2ccccc2N1Cc1cn(CCc2ccccc2)nn1	66 µM	48.8 µM	
O=C1COc2ccccc2N1Cc1cn(Cc2ccccc2)nn1	84.5 µM	> 100 µM	
Cc1ccc(Cn2cc(CN3C(=O)COc4ccccc43)nn2)cc1	> 100 µM	28.6 µM	
O=C1COc2ccccc2N1Cc1cn(C/C=C/c2ccccc2)nn1	38.9 µM	> 100 µM	
Cc1cc2c(cc1Cl)N(Cc1cn(Cc3ccccc3)nn1)C(=O)CO2	> 100 µM	19.6 µM	
COc1ccc2c(c1)N(Cc1cn(Cc3ccccc3)nn1)C(=O)CO2	> 100 µM	> 100 µM	
O=C1COc2ccc(F)cc2N1Cc1cn(Cc2ccccc2)nn1	> 100 µM	> 100 µM	
O=C1COc2ccccc2N1Cc1cn(Cc2ccc(Cl)cc2)nn1	> 100 µM	21.9 µM	
COc1ccc2c(c1)OCC(=O)N2Cc1cn(Cc2ccccc2)nn1	9.2 µM	9.3 µM	
COC(=O)Cn1cc(CN2C(=O)COc3ccccc32)nn1	> 100 µM	50.8 µM	
O=C1COc2ccccc2N1Cc1cn(Cc2cccc3ccccc23)nn1	15.2 µM	17 µM	
CCC1Oc2ccccc2N(Cc2cn(Cc3ccccc3)nn2)C1=O (stereo unspecified)	> 100 µM	> 100 µM	
CCOC(=O)c1ccc2c(c1)N(Cc1cn(Cc3ccccc3)nn1)C(=O)CO2	17.1 µM	41.5 µM	
O=C1C(c2ccccc2)Oc2ccccc2N1Cc1cn(Cc2ccccc2)nn1 (stereo unspecified)	> 100 µM	> 100 µM	
O=C1COc2cccnc2N1Cc1cn(Cc2ccccc2)nn1	8.7 µM	12.8 µM	
O=C1COc2cc(F)ccc2N1Cc1cn(Cc2ccccc2)nn1	0.9 µM	> 100 µM	
O=C1COc2ccccc2N1Cc1cn(Cc2ccc3ccccc3n2)nn1	> 100 µM	> 100 µM	
O=C1COc2ccccc2N1Cc1cn(CCc2c[nH]c3ccccc23)nn1	70 µM	15.2 µM	
CCCC1Oc2ccccc2N(Cc2cn(Cc3ccccc3)nn2)C1=O (stereo unspecified)	61.8 µM	> 100 µM	
COc1cc(/C=C/C(=O)CC(=O)/C=C/c2ccc(O)c(OC)c2)ccc1O [CURCUMIN]			Ratio (Hep 3B2 [2]): 6.6; Activity (Hep 3B2 [3]): 16.4%; Ratio (Hep 3B2 [4]): 1.2; Activity (Hep 3B2 [5]): 46.7%; growth inhibition (GI) (Hep 3B2 [6]): Active; Activity (Hep 3B2 [7]): 22.7%; Activity (Hep 3B2 [8]): 14.2%
Cc1ccc2c(c1)N(Cc1cn(Cc3ccccc3)nn1)C(=O)CO2	> 100 µM	> 100 µM	
CC(C)(C)c1ccc(Cn2cc(CN3C(=O)COc4ccccc43)nn2)cc1	25.6 µM	25.1 µM	
CCOC(=O)Cn1cc(CN2C(=O)COc3ccccc32)nn1	19 µM	36.4 µM	
O=C1COc2ccc(Cl)cc2N1Cc1cn(Cc2ccccc2)nn1	55.5 µM	76.5 µM	
Cc1ccc2c(c1)OCC(=O)N2Cc1cn(Cc2ccccc2)nn1	> 100 µM	54.9 µM	
